19 molecules from ChEMBL document CHEMBL6109073, “Discovery of β-amino acid substituted naphthalene sulfonamide derivatives as potent Kelch-like ECH-associated protein 1-nuclear factor erythroid 2-related factor 2 (Keap1-Nrf2) protein-protein interaction inhibitors for ulcerative colitis management” (Eur J Med Chem, 2025) can be followed below.

Where only a bound is given, the exact number is not on record here.

The target in this test is Keap1/Nrf2 (Homo sapiens, UniProt Q14145).
Chain of Keap1/Nrf2 (Q16236 whole entry): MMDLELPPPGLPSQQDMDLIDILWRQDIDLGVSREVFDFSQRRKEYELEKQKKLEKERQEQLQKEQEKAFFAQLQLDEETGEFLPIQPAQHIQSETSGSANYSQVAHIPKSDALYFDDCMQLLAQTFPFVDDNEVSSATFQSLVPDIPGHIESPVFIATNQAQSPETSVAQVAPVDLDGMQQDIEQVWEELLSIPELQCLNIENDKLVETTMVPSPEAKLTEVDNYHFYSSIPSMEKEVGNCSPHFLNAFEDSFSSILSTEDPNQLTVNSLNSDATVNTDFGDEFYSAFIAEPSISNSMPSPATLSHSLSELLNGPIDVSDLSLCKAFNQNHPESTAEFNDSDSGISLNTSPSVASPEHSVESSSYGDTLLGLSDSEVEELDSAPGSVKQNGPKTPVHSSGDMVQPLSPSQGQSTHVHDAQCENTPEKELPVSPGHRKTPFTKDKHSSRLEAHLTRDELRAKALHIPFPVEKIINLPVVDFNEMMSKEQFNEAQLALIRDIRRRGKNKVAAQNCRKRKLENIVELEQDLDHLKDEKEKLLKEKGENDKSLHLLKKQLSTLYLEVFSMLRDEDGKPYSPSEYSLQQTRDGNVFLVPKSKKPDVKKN
Chain of Keap1/Nrf2 (Q14145 whole entry): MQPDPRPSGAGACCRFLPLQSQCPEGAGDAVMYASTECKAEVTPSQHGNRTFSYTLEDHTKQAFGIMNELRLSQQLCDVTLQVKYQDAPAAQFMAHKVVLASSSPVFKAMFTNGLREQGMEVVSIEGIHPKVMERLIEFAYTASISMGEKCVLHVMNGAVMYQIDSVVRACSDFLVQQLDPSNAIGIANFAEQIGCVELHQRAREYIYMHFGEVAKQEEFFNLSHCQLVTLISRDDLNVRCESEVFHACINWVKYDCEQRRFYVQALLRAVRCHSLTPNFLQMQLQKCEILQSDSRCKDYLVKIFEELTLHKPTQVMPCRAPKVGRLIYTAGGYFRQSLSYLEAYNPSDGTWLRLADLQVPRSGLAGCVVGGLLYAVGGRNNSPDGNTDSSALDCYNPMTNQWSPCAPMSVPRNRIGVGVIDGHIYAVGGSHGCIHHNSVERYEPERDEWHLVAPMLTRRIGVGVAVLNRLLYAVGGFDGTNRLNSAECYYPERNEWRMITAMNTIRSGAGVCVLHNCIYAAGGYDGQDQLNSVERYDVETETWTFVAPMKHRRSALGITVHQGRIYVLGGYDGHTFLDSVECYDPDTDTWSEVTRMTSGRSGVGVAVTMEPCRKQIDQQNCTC
Description: Inhibition of Keap1 kelch domain (322 to 609 residues) (unknown origin)/Nrf2 (unknown origin) protein-protein interaction incubated for 30 mins by fluorescence polarization assay
Broadly, the IC50 is the concentration needed to halve the response being measured. A lower IC50 goes with inhibition by little substance. `Cc1cc(C)c(C)c(S(=O)(=O)Nc2ccc(N[C@@H](C)CC(=O)O)c3ccccc23)c1C` returned an IC50 of 6.64 µM.
`C[C@@H](CC(=O)O)Nc1ccc(N(CC(=O)O)S(=O)(=O)c2ccc(C(C)(C)C)cc2)c2ccccc12` gave a 50% inhibitory concentration (IC50) of 10.1 µM.
The molecule `C[C@@H](CC(=O)O)Nc1ccc(N(CC(=O)O)S(=O)(=O)c2ccc(C(F)(F)F)cc2)c2ccccc12` yielded an IC50 of 16.5 µM.
With `Cc1ccc(S(=O)(=O)Nc2ccc(N[C@@H](C)CC(=O)O)c3ccccc23)cc1` the figure was 44 µM.
With `Cc1ccc(S(=O)(=O)N(CC(=O)O)c2ccc(N[C@@H](C)CC(=O)O)c3ccccc23)cc1` the figure was 7.14 µM; with `COc1ccc(S(=O)(=O)Nc2ccc(N[C@@H](C)CC(=O)O)c3ccccc23)cc1`, over 50 µM.
As to `C[C@@H](CC(=O)O)Nc1ccc(NS(=O)(=O)c2ccc(Cl)cc2)c2ccccc12`, the IC50 was over 50 µM.
On to `CCOc1ccc(S(=O)(=O)N(CC(=O)O)c2ccc(N[C@@H](C)CC(=O)O)c3ccccc23)cc1`, for which it took 8.82 µM to reach half-maximal inhibition (IC50). That is a single-digit micromolar value.
The molecule `COc1ccc(S(=O)(=O)N(CC(=O)O)c2ccc(N[C@@H](CC(=O)O)c3ccccc3)c3ccccc23)cc1` gave an IC50 of 13.9 µM.
With `COc1ccc(S(=O)(=O)N(CC(=O)O)c2ccc(N[C@@H](C)CC(=O)O)c3ccccc23)cc1` the figure was 8.21 µM; with `C[C@@H](CC(=O)O)Nc1ccc(NS(=O)(=O)c2ccc(F)cc2)c2ccccc12`, over 50 µM.
`C[C@@H](CC(=O)O)Nc1ccc(NS(=O)(=O)c2ccc(C(C)(C)C)cc2)c2ccccc12` gave an IC50 of over 50 µM.
The molecule `COc1ccc(S(=O)(=O)Nc2ccc(N[C@@H](CC(=O)O)c3ccccc3)c3ccccc23)cc1` registered a concentration for half-maximal inhibition (IC50) of over 50 µM.
With `Cc1cc(C)c(S(=O)(=O)Nc2ccc(N[C@@H](C)CC(=O)O)c3ccccc23)c(C)c1` the figure was 2.28 µM; with `C[C@@H](CC(=O)O)Nc1ccc(N(CC(=O)O)S(=O)(=O)c2ccc(F)cc2)c2ccccc12`, 23.7 µM; with `C[C@@H](CC(=O)O)Nc1ccc(N(CC(=O)O)S(=O)(=O)c2ccc(Cl)cc2)c2ccccc12`, 10.6 µM.
As for `Cc1cc(C)c(C)c(S(=O)(=O)N(CC(=O)O)c2ccc(N[C@@H](C)CC(=O)O)c3ccccc23)c1C`, the IC50 came to 1.61 µM.
With `C[C@@H](CC(=O)O)Nc1ccc(NS(=O)(=O)c2ccc(C(F)(F)F)cc2)c2ccccc12` the figure was 47.6 µM; with `CCOc1ccc(S(=O)(=O)Nc2ccc(N[C@@H](C)CC(=O)O)c3ccccc23)cc1`, 33.4 µM.
